Experimental data taken from patent US6620793B2, “Therapeutic use of ganglioside GM1 in the treatment of spinal cord injury” (Fidia Farmaceutici S.p.A., priority 1991, dated 2003).
“And” between values parts separate entries of the source, which are not always exact repeats. Equal entries are not always repeated.

Experiments:
[1] = Solubility of purified GM1 sodium salt; assay type: physicochemical
Text: The compound obtained after this purification has the following chemical characteristics and specifications:
Soluble in water, methanol-water and methanol-chloroform.

[2] = test system: patients with spinal cord injury; assay: Randomized placebo-controlled double-blind spinal cord injury GM1 trial: Frankel grade; assay type: in vivo, humans
Text: The first clinical scale used, that is the Frankel classification system, is extremely important because it provides a very relevant clinical index of neurological improvement of the patients.
More precisely, the Frankel classification system separates neurologic disability into five ordinal grades, according to the type and completeness of neurologic function remaining below the level of the spinal-cord injury, as follows: grad A, complete neurclogic injury; grade B, only sensation preserved; grade C, nonfunctional motor ability preserved; grade D, functional motor ability preserved; and grade E, normal motor function. The letters designating each grade were used by Frankel in his original description of this scale.

[3] = test system: patients with spinal cord injury; assay: Randomized placebo-controlled double-blind spinal cord injury GM1 trial: ASIA motor score
Text: This study was designed as a pilot study to test whether the neurologic recovery in humans after a spinal-cord injury could be altered by adding monosialbtetrahexosylganglioside (GM1) ganglioside beyond the routine medical and surgical care with which these trauma patients are initially treated.
A prospective, randomized, placebo-controlled, double-blinded spinal cord injury GM1 ganglioside drug trial was completed. Of the 37 patients, 34 patients (23 cervical and 11 thoracic injuries) who were randomly assigned to a treatment group and who followed the test drug protocol and completed the one year follow-up period, 16 patients were included in the GM1 group and 18 were in the placebo group.
The first dose of study drug was administered within 72 hours of the injury and then 17 to 29 additional 5 ml daily injections of 100 mg GM1 or placebo were given. The treatment (100 mg of GM1 sodium salt or placebo) was administered duly by the intravenous route for a total of 18-32 doses, with the first dose taken within 72 hours of the injury.
The complete composition of the GM1 ganglioside used in the study (Sygen, Fidia, Abano Terme, Italy) is 100 mg of GM1 sodium salt, 12.7 mM; 1.25 mg of sodium dihydrogen phosphate dihydrate, 1.6 mM; 15.0 mg of disodium hydrogen phosphate dodecahydrate, 8.4 mM; 40.0 mg of sodium chloride, 137.9 nM; and a quantity of water sufficient to yield an isotonic solution with a total volume of 5 ml for injection. The placebo vials were identical in appearance and composition, except that the GM1 was absent. Most of the test drug was administered by injection through an intravenous heparin lock. Some of the first few injections were given by an intravenous catheter, and occasionally, when the heparin lock was nonfunctional, a single direct-puncture intravenous injection was used.
The severity of spinal-cord injury and its subsequent recovery were quantified by serial measurement with both the Frankel scale and the American Spinal Injury Association (ASIA) motor score. Each measurement was made at the time of the first contact in the emergency room, at entry into the study, then twice per week for the first 4 weeks and after 2, 3, 6 and 12 months.
The second clinical scale used, that is the ASIA motor score, provides a quantifiable index of nerve-muscle functionality. More exactly, this scale has a range of 0 (complete quadriplegia) to 100 (normal motor function). Five key muscles in each extremity (the biceps, wrist extensors, triceps, flexor profundus, and hand intrinsics in the upper extremity, and the iliopsoas, quadriceps, tibialis anterior, extensor hallucis longus, and gastrocnemius in the lower extremity) are assessed on a scale for strength from 0 to 5 points in which 0 (absent) denotes total paralysis, 1 (trace) palpable or visible penetration, 2(poor) active movement through a range of motion in which gravity is not involved, 3 (fair) active movement through a range of motion against gravity, 4 (good) active movement through a range of motion against resistance, and 5 normal. The ASIA motor score is the sum of the scores for muscle strength in these 20 motor groups.
Furthermore, to better analyze the GM1 effect on muscular functionality, the 20 individual muscle groups in each patient were subdivided into three categories at entry: those initially paralyzed (a motor score of 0), those initially paretic (a motor score of 1 through 4), and those functioning normally (a motor score of 5).

## CCCCCCCCCCCCCC=CC(O)C(COC1OC(CO)C(OC2OC(CO)C(OC3OC(CO)C(O)C(OC4OC(CO)C(O)C(O)C4O)C3NC(C)=O)C(OC3(C(=O)[O-])CC(O)C(NC(C)=O)C(C(O)C(O)CO)O3)C2O)C(O)C1O)NC(=O)CCCCCCCCCCCCCCCCC.[Na+] (stereo not drawn) [GM1, Monosialotetrahexosylganglioside, sodium salt]
[1]; in methanol, acetone, chloroform, ether and hexane
  Solubility: Virtually insoluble
[1]; in water, methanol-water and methanol-chloroform
  Solubility: Soluble
[2]; after one year, 100 mg GM1 i.v. daily, 18-32 doses, 8 of 34 patients improved overall
  Patients improved by two or more Frankel grades who were in the GM1 group: seven of eight
[2]; entry to one year, P=0.034 Cochran-Mantel-Haenszel chi-square test
  Improvement with respect to Frankel grade versus placebo: improved more than the placebo-treated patients
[2]; one year, placebo 1 of 14, P=0.033 Fisher's exact test, two-tailed
  Patients improved by two or more Frankel grades among those who had room to improve (number): 7 of 14
[2]; one year, placebo 7.1 percent, P=0.033 Fisher's exact test
  Patients improved by two or more Frankel grades among those who had room to improve (percent): 50%
[3]; GM1 versus placebo, one year, mean ± SD, n=34, sodium salt
  Difference in improvement in ASIA motor score between groups, unadjusted: 15.3 and 15.3 ± 25.6
[3]; all patients, entry to one-year follow-up, mean ± SD, n=16
  Improvement in mean ASIA motor score: 36.9 ± 28.2
[3]; all patients, one-year follow-up, mean ± SD, n=16
  Mean ASIA motor score at follow-up: 62.8 ± 26.8
[3]; all patients, study entry (baseline), mean ± SD, n=16, sodium salt
  Mean ASIA motor score at entry: 25.9 and 25.9 ± 21.8
[3]; entry to one-year follow-up
  Patients with a greater degree of ASIA motor recovery than any patient assigned to placebo: three
[3]; entry to one-year follow-up, placebo 7 of 18
  Patients with motor recoveries of more than 20 points in ASIA motor score (number): 11 of 16
[3]; entry to one-year follow-up, placebo 38.9 percent
  Patients with motor recoveries of more than 20 points in ASIA motor score (percent): 68.8%
[3]; entry to one-year follow-up, placebo six patients
  Patients with no recovery in ASIA motor score: one
[3]; entry to score after one year, 95 percent CI 21.9 to 51.9
  Mean motor recovery in ASIA motor score: 36.9 points
[3]; motor score 0 at entry to 3 to 5 after one year, placebo 25.3 percent
  Muscle groups paralyzed at entry that regained useful-to-normal motor function (percent): 51.7%
[3]; motor score 0 at entry to 3 to 5 after one year, placebo 49 of 194
  Muscle groups paralyzed at entry that regained useful-to-normal motor function (number): 107 of 207
[3]; motor score 0 at entry, after one year, placebo 65.5 percent
  Muscle groups paralyzed at entry that remained paralyzed (percent): 30.9%
[3]; motor score 0 at entry, after one year, placebo 127 of 194
  Muscle groups paralyzed at entry that remained paralyzed (number): 64 of 207
[3]; one-year follow-up, post hoc, placebo 8 of 18, P=0.039 Fisher's exact test
  Patients with at least one muscle group paralyzed at entry that improved to a motor score of 3 or more (number): 13 of 16
[3]; one-year follow-up, post hoc, placebo 44.4 percent, P=0.039 Fisher's exact test
  Patients with at least one muscle group paralyzed at entry that improved to a motor score of 3 or more (percent): 81.3%
